Reference: article PMC5011342, “A high throughput drug screening assay to identify compounds that promote oligodendrocyte differentiation using acutely dissociated and purified oligodendrocyte precursor cells” (BMC Research Notes, 2016)
Where a name gives a salt, the structure may show the parent alone. Read-outs that look alike come from different tables or passages of the source.

How the values were obtained:
expanded OPCs = assay: cells; settings: for viability at 0.1 µM / viability at 1 µM / viability at 10 µM: Rattus norvegicus, 72 h
Summary of the method: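 Expanded OPCs seeded at 10,000 cells/well in differentiation media, then exposed to NCC library compounds at 10, 1 and 0.1 µM (quadruplicate, 0.1% DMSO) for three days. Viability read as alamarBlue fluorescence (560/590 nm) after 4 h at 37 °C; tunicamycin 5 ng/ml served as toxicity control.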

[1] = tested on: acutely dissociated and purified rat OPCs; assay: Acute OL differentiation assay (MBP expression/cell, immunofluorescent image quantification); assay type: cell-based; settings: sheet "All OLga data"; for activation at 0.4 µM / activation at 2 µM / activation at 0.08 µM / activation at 10 µM: Rattus norvegicus
Summary of the method: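 Oligodendrocyte precursor cells were enriched from P6-P7 Sprague–Dawley rat brains by immunopanning (RAN-2 and GalC depletion, O4 selection), plated at 5000 cells/well in serum-free, mitogen-free differentiation media on PDL/laminin 96-well view plates, centrifuged at 200×g, and pre-incubated 1–2 h before test compounds were added in quadruplicate. On DIV4, cells were fixed, stained for MBP and DAPI, imaged automatically, and MBP expression per cell was quantified.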

[2] = read-out: 0.1 µM (% DMSO), alamarBlue viability, NCC library compound at 0.1 µM, sheet "All Tox data"
[3] = read-out: 1 µM (% DMSO), alamarBlue viability, NCC library compound at 1 µM, sheet "All Tox data"
[4] = read-out: 10 µM (% DMSO), alamarBlue viability, NCC library compound at 10 µM, sheet "All Tox data"
[5] = 0.4 uM test compound, relative to quetiapine, read-out: OL differentiation, 0.4 uM (% Quet)
[6] = 2 uM test compound, relative to quetiapine, read-out: OL differentiation, 2 uM (% Quet)
[7] = read-out: 0.1 µM (% DMSO), alamarBlue viability of expanded OPCs, compound at 0.1 µM, sheet All Tox data
[8] = read-out: 1 µM (% DMSO), alamarBlue viability of expanded OPCs, compound at 1 µM, sheet All Tox data
[9] = read-out: 10 µM (% DMSO), alamarBlue viability of expanded OPCs, compound at 10 µM, sheet All Tox data
[10] = 0.08 uM test compound, relative to quetiapine, read-out: OL differentiation, 0.08 uM (% Quet)
[11] = 10 uM test compound, relative to quetiapine, read-out: OL differentiation, 10 uM (% Quet)
[12] = alamarBlue viability of expanded OPCs, compound at 0.1 µM, relative to DMSO control
[13] = alamarBlue viability of expanded OPCs, compound at 1 µM, relative to DMSO control
[14] = alamarBlue viability of expanded OPCs, compound at 10 µM, relative to DMSO control
[15] = test compound at 2 uM, NCC library screen, relative to quetiapine, read-out: 2 uM (% Quet)
[16] = test compound at 10 uM, NCC library screen, relative to quetiapine, read-out: 10 uM (% Quet)
[17] = test compound at 0.4 uM, MBP expression relative to quetiapine, NCC library screen, read-out: 0.4 uM (% Quet)
[18] = test compound at 2 uM, MBP expression relative to quetiapine, NCC library screen, read-out: 2 uM (% Quet)

| Structure (SMILES) | viability at 0.1 µM (expanded OPCs; [2]) [%] | viability at 1 µM (expanded OPCs; [3]) [%] | viability at 10 µM (expanded OPCs; [4]) [%] | activation at 2 µM [1, 6] [%] | viability at 0.1 µM (expanded OPCs; [7]) [%] | viability at 1 µM (expanded OPCs; [8]) [%] | viability at 10 µM (expanded OPCs; [9]) [%] | activation at 10 µM [1, 11] [%] | activation at 2 µM [1, 15] [%] | activation at 10 µM [1, 16] [%] | other results |
| --- | --- | --- | --- | --- | --- | --- | --- | --- | --- | --- | --- |
| CC(C)(C)NC(=O)[C@@H]1C[C@@H]2CCCC[C@@H]2CN1C[C@@H](O)[C@H](Cc1ccccc1)NC(=O)[C@H](CC(N)=O)NC(=O)c1ccc2ccccc2n1 [Saquinavir] | 95 | 88.9 | 14.5 | -82.7 | – | – | – | – | – | – | activation at 0.4 µM [1, 5]: -24.5% |
| CN1[C@@H]2C[C@@H](OC(=O)[C@H](CO)c3ccccc3)C[C@H]1[C@@H]1O[C@@H]12 [Scopolamine hydrobromide] | – | – | – | – | 81.1 | 90.5 | 88.5 | – | – | – | activation at 0.08 µM [1, 10]: 21.6%; activation at 0.4 µM [1, 5]: 10.9% |
| Cc1ncc([N+](=O)[O-])n1CC(C)O (stereo not shown) [Secnidazole] | – | – | – | 8.1 | 97.5 | 99.6 | 110 | 2.5 | – | – | – |
| COc1cc(C[C@@H](CO)[C@H](CO)Cc2ccc(O)c(OC)c2)ccc1O [Secoisolariciresinol] | – | – | – | – | – | – | – | – | – | – | 0.1 µM (% DMSO) (expanded OPCs; alamarBlue viability, NCC library compound at 0.1 µM, sheet "All Tox data"): 92.4 % DMSO; 1 µM (% DMSO) (expanded OPCs; alamarBlue viability, NCC library compound at 1 µM, sheet "All Tox data"): 88.4 % DMSO; 10 µM (% DMSO) (expanded OPCs; alamarBlue viability, NCC library compound at 10 µM, sheet "All Tox data"): 78.5 % DMSO; 2 uM (% Quet) ([1]; test compound at 2 uM, NCC library screen, relative to quetiapine): -3.9 % Quet; 10 uM (% Quet) ([1]; test compound at 10 uM, NCC library screen, relative to quetiapine): 12.5 % Quet |
| C#CCN(C)[C@H](C)Cc1ccccc1 [Selegiline] | – | – | – | 10.1 | 85.8 | 88.8 | 91.2 | 19.7 | 0.64 | 11.2 | 0.1 µM (% DMSO) (expanded OPCs; [12]): 101.6 % DMSO; 1 µM (% DMSO) (expanded OPCs; [13]): 93.8 % DMSO; 10 µM (% DMSO) (expanded OPCs; [14]): 94.0 % DMSO |
| CN[C@H]1CC[C@@H](c2ccc(Cl)c(Cl)c2)c2ccccc21 [Sertraline] | – | – | – | – | 74.6 | 24.6 | 11.1 | – | – | – | 0.1 µM (% DMSO) (expanded OPCs; [12]): 52.7 % DMSO; 1 µM (% DMSO) (expanded OPCs; [13]): 20.4 % DMSO; 10 µM (% DMSO) (expanded OPCs; [14]): 7.7 % DMSO; activation at 0.08 µM [1, 10]: 0.9%; activation at 0.4 µM [1, 5]: -63.6%; activation at 0.08 µM ([1]; test compound at 0.08 uM, MBP expression relative to quetiapine, NCC library screen, read-out: 0.08 uM (% Quet)): -13.2%; activation at 0.4 µM [1, 17]: -134% |
| CCC(C)(C)C(=O)O[C@H]1C[C@@H](C)C=C2C=C[C@H](C)[C@H](CC[C@@H]3C[C@@H](O)CC(=O)O3)[C@H]21 [Simvastatin] | – | – | – | – | – | – | – | – | – | – | 0.1 µM (% DMSO) (expanded OPCs; [12]): 157.3 % DMSO; 1 µM (% DMSO) (expanded OPCs; [13]): 86.5 % DMSO; 10 µM (% DMSO) (expanded OPCs; [14]): 25.7 % DMSO; activation at 0.4 µM [1, 17]: -105%; activation at 2 µM [1, 18]: -140% |
| CC(C)NCC(O)c1ccc(NS(C)(=O)=O)cc1 (stereo not shown) [Sotalol] | – | – | – | -13.4 | 96.2 | 89.5 | 107 | -22.5 | – | – | – |
| CN[C@@H]1[C@H](O)[C@H](NC)[C@H]2O[C@@]3(O)C(=O)C[C@@H](C)O[C@H]3O[C@@H]2[C@H]1O [Spectinomycin] | – | – | – | – | – | – | – | – | 7.7 | 18.9 | 0.1 µM (% DMSO) (expanded OPCs; [12]): 91.8 % DMSO; 1 µM (% DMSO) (expanded OPCs; [13]): 87.7 % DMSO; 10 µM (% DMSO) (expanded OPCs; [14]): 83.6 % DMSO |
| CC(=O)S[C@@H]1CC2=CC(=O)CC[C@]2(C)[C@H]2CC[C@@]3(C)[C@@H](CC[C@@]34CCC(=O)O4)[C@H]12 [Spironolactone] | – | – | – | – | – | – | – | – | -13 | -65.1 | 0.1 µM (% DMSO) (expanded OPCs; [12]): 88.4 % DMSO; 1 µM (% DMSO) (expanded OPCs; [13]): 80.5 % DMSO; 10 µM (% DMSO) (expanded OPCs; [14]): 61.8 % DMSO |
| C[C@]12Cc3c[nH]nc3C[C@@H]1CC[C@@H]1[C@@H]2CC[C@@]2(C)[C@H]1CC[C@]2(C)O [Stanozolol] | 91.1 | 92.6 | 61.7 | – | – | – | – | – | 42.2 | – | activation at 0.4 µM ([1]; test compound at 0.4 uM, NCC library screen, relative to quetiapine, read-out: 0.4 uM (% Quet)): 6.5% |
| Cc1cn([C@H]2C=C[C@@H](CO)O2)c(=O)[nH]c1=O [Stavudine] | – | – | – | -25.8 | 110 | 91.5 | 107 | -25 | – | – | 0.1 µM (% DMSO) (expanded OPCs; [12]): 90.1 % DMSO; 1 µM (% DMSO) (expanded OPCs; [13]): 97.1 % DMSO; 10 µM (% DMSO) (expanded OPCs; [14]): 101.2 % DMSO; activation at 2 µM [1, 18]: -21.6%; activation at 10 µM ([1]; test compound at 10 uM, MBP expression relative to quetiapine, NCC library screen, read-out: 10 uM (% Quet)): -35.1% |
| CC(C)(C)C(O)/C=C/c1ccc2c(c1)OCO2 (stereo not shown) [Stiripentol] | 85.4 | 89.5 | 83.7 | – | – | – | – | – | -12 | -14.2 | – |
| CC(=O)NS(=O)(=O)c1ccc(N)cc1 [Sulfacetamide] | 90.1 | 91.6 | 89.7 | – | – | – | – | – | 11.2 | 0.16 | – |
| O=C(O)c1cc(/N=N/c2ccc(S(=O)(=O)Nc3ccccn3)cc2)ccc1O [Sulfasalazine] | – | – | – | 15.1 | 89 | 89.8 | 94.9 | -0.6 | – | – | – |
| O=C1C(CC[S+]([O-])c2ccccc2)C(=O)N(c2ccccc2)N1c1ccccc1 (stereo not shown) [Sulfinpyrazone] | 88.8 | 92.9 | 88.2 | – | – | – | – | – | -3.8 | -6.8 | – |
| Cc1noc(NS(=O)(=O)c2ccc(N)cc2)c1C [Sulfisoxazole] | 93.5 | 99.1 | 103 | – | – | – | – | – | -3.5 | 7.6 | – |
| CC1=C(CC(=O)O)c2cc(F)ccc2/C1=C\c1ccc([S+](C)[O-])cc1 (stereo not shown) [Sulindac] | – | – | – | – | – | – | – | – | 0.6 | -11.2 | 0.1 µM (% DMSO) (expanded OPCs; [12]): 90.8 % DMSO; 1 µM (% DMSO) (expanded OPCs; [13]): 94.4 % DMSO; 10 µM (% DMSO) (expanded OPCs; [14]): 90.3 % DMSO |
| CCN1CCCC1CNC(=O)c1cc(S(N)(=O)=O)ccc1OC (stereo not shown) [Sulpiride] | – | – | – | -9.7 | 105 | 116 | 115 | 6 | – | – | – |
| CCN1CCCC1CNC(=O)c1cc(S(=O)(=O)CC)ccc1OC (stereo not shown) [Sultopride] | – | – | – | 7.7 | 93.7 | 89.8 | 96.2 | 0 | – | – | – |
| CNS(=O)(=O)Cc1ccc2[nH]cc(CCN(C)C)c2c1 [Sumatriptan] | 95.1 | 98.2 | 92.1 | 69.1 | – | – | – | 84.6 | – | – | – |
| CNCC(O)c1ccc(O)cc1 (stereo not shown) [Synephrine] | 85.8 | 94.3 | 93.4 | – | – | – | – | – | -7.3 | 2.8 | – |
| Nc1c2c(nc3ccccc13)CCCC2 [Tacrine] | – | – | – | -10.2 | 80.5 | 80 | 77.8 | 2.8 | – | – | – |
| C=CC[C@@H]1/C=C(\C)C[C@H](C)C[C@H](OC)[C@H]2O[C@@](O)(C(=O)C(=O)N3CCCC[C@H]3C(=O)O[C@H](/C(C)=C/[C@@H]3CC[C@@H](O)[C@H](OC)C3)[C@H](C)[C@@H](O)CC1=O)[C@H](C)C[C@@H]2OC [Tacrolimus] | – | – | – | -39.9 | 94.6 | 102 | 109 | -53.9 | – | – | – |
| CN1CC(=O)N2[C@H](c3ccc4c(c3)OCO4)c3[nH]c4ccccc4c3C[C@@H]2C1=O [Tadalafil] | – | – | – | 21.4 | 99.2 | 93 | 93.9 | -16 | – | – | – |
| O=C1c2c(O)cc(O)cc2OC(c2ccc(O)c(O)c2)C1O (stereo not shown) [Taxifolin] | – | – | – | -1.7 | 96.4 | 93.7 | 88.7 | -59 | – | – | – |
